Data taken from ChEMBL document CHEMBL1671713, “Synergy of caspofungin with human polymorphonuclear granulocytes for killing Candida albicans” (2010).

What was measured:
Assay type in all cases: functional
Candida albicans [1] = assay: Potentiation of compound pretreated human polymorphonuclear granulocytes-induced intracellular killing of Candida albicans at 2 ug/ml after 30 mins (Rvb =46%)
Candida albicans [2] = assay: Potentiation of compound pretreated human polymorphonuclear granulocytes-induced intracellular killing of Candida albicans at 8 ug/ml after 30 mins (Rvb =46%)
Candida albicans [3] = assay: Potentiation of human polymorphonuclear granulocytes-induced intracellular killing of Candida albicans at 8 ug/ml after 90 mins (Rvb =48%)
Candida albicans [4] = assay: Potentiation of human polymorphonuclear granulocytes-induced intracellular killing of Candida albicans at 8 ug/ml after 30 mins (Rvb =46%)
Candida albicans [5] = assay: Potentiation of human polymorphonuclear granulocytes-induced intracellular killing of compound pretreated Candida albicans for 1hr at 2 ug/ml after 30 mins (Rvb =46%)
Candida albicans [6] = assay: Potentiation of human polymorphonuclear granulocytes-induced intracellular killing of Candida albicans at 3.2 ug/ml after 90 mins (Rvb =48%)
Candida albicans [7] = assay: Potentiation of human polymorphonuclear granulocytes-induced intracellular killing of compound pretreated Candida albicans for 1hr at 3.2 ug/ml after 60 mins (Rvb =47%)
Candida albicans [8] = assay: Potentiation of human polymorphonuclear granulocytes-induced intracellular killing of compound pretreated Candida albicans for 1hr at 8 ug/ml after 60 mins (Rvb =47%)
Candida albicans [9] = assay: Potentiation of compound pretreated human polymorphonuclear granulocytes-induced intracellular killing of Candida albicans at 3.2 ug/ml after 30 mins (Rvb =46%)
Candida albicans [10] = assay: Potentiation of human polymorphonuclear granulocytes-induced intracellular killing of compound pretreated Candida albicans for 1hr at 2 ug/ml after 60 mins (Rvb =47%)
Candida albicans [11] = assay: Potentiation of human polymorphonuclear granulocytes-induced intracellular killing of Candida albicans at 8 ug/ml after 60 mins (Rvb =47%)
Candida albicans [12] = assay: Potentiation of human polymorphonuclear granulocytes-induced intracellular killing of Candida albicans at 3.2 ug/ml after 60 mins (Rvb =47%)
Candida albicans [13] = assay: Potentiation of human polymorphonuclear granulocytes-induced intracellular killing of Candida albicans at 3.2 ug/ml after 30 mins (Rvb =46%)
Candida albicans [14] = assay: Potentiation of compound pretreated human polymorphonuclear granulocytes-induced intracellular killing of Candida albicans at 2 ug/ml after 90 mins (Rvb =48%)
Candida albicans [15] = assay: Potentiation of human polymorphonuclear granulocytes-induced intracellular killing of compound pretreated Candida albicans for 1hr at 3.2 ug/ml after 90 mins (Rvb =48%)
Candida albicans [16] = assay: Potentiation of human polymorphonuclear granulocytes-induced intracellular killing of compound pretreated Candida albicans for 1hr at 2 ug/ml after 90 mins (Rvb =48%)
Candida albicans [17] = assay: Potentiation of compound pretreated human polymorphonuclear granulocytes-induced intracellular killing of Candida albicans at 3.2 ug/ml after 60 mins (Rvb =47%)
Candida albicans [18] = assay: Potentiation of compound pretreated human polymorphonuclear granulocytes-induced intracellular killing of Candida albicans at 8 ug/ml after 90 mins (Rvb =48%)
Candida albicans [19] = assay: Potentiation of compound pretreated human polymorphonuclear granulocytes-induced intracellular killing of Candida albicans at 2 ug/ml after 60 mins (Rvb =47%)
Candida albicans [20] = assay: Potentiation of human polymorphonuclear granulocytes-induced intracellular killing of compound pretreated Candida albicans for 1hr at 8 ug/ml after 90 mins (Rvb =48%)
Candida albicans [21] = assay: Potentiation of human polymorphonuclear granulocytes-induced intracellular killing of Candida albicans at 2 ug/ml after 30 mins (Rvb =46%)
Candida albicans [22] = assay: Potentiation of human polymorphonuclear granulocytes-induced intracellular killing of compound pretreated Candida albicans for 1hr at 3.2 ug/ml after 30 mins (Rvb =46%)
Candida albicans [23] = assay: Potentiation of human polymorphonuclear granulocytes-induced intracellular killing of Candida albicans at 2 ug/ml after 90 mins (Rvb =48%)
Candida albicans [24] = assay: Potentiation of compound pretreated human polymorphonuclear granulocytes-induced intracellular killing of Candida albicans at 8 ug/ml after 60 mins (Rvb =47%)
Candida albicans [25] = assay: Potentiation of human polymorphonuclear granulocytes-induced intracellular killing of compound pretreated Candida albicans for 1hr at 8 ug/ml after 30 mins (Rvb =46%)
Candida albicans [26] = assay: Potentiation of human polymorphonuclear granulocytes-induced intracellular killing of Candida albicans at 2 ug/ml after 60 mins (Rvb =47%)
Candida albicans [27] = assay: Potentiation of compound pretreated human polymorphonuclear granulocytes-induced intracellular killing of Candida albicans at 3.2 ug/ml after 90 mins (Rvb =48%)

Compound: CC[C@H](C)C[C@H](C)CCCCCCCCC(=O)N[C@H]1C[C@@H](O)[C@@H](NCCN)NC(=O)[C@@H]2[C@@H](O)CCN2C(=O)[C@H]([C@H](O)CCN)NC(=O)[C@H]([C@H](O)[C@@H](O)c2ccc(O)cc2)NC(=O)[C@@H]2C[C@@H](O)CN2C(=O)[C@H]([C@@H](C)O)NC1=O [CASPOFUNGIN]
- Activity (Candida albicans [1]): 72%
- Activity (Candida albicans [2]): 79%
- Activity (Candida albicans [3]): 83%
- Activity (Candida albicans [4]): 74%
- Activity (Candida albicans [5]): 69%
- Activity (Candida albicans [6]): 86%
- Activity (Candida albicans [7]): 74%
- Activity (Candida albicans [8]): 66%
- Activity (Candida albicans [9]): 69%
- Activity (Candida albicans [10]): 69%
- Activity (Candida albicans [11]): 83%
- Activity (Candida albicans [12]): 75%
- Activity (Candida albicans [13]): 72%
- Activity (Candida albicans [14]): 82%
- Activity (Candida albicans [15]): 78%
- Activity (Candida albicans [16]): 82%
- Activity (Candida albicans [17]): 84%
- Activity (Candida albicans [18]): 94%
- Activity (Candida albicans [19]): 76%
- Activity (Candida albicans [20]): 72%
- Activity (Candida albicans [21]): 71%
- Activity (Candida albicans [22]): 63%
- Activity (Candida albicans [23]): 75%
- Activity (Candida albicans [24]): 82%
- Activity (Candida albicans [25]): 63%
- Activity (Candida albicans [26]): 72%
- Activity (Candida albicans [27]): 91%
